# According to patent US20170239249A1, “QUINAZOLINE-BASED KINASE INHIBITORS” (Bristol-Myers Squibb Company, priority 2014, published 2017):
# Biological target: AAK1 (full length human) (Homo sapiens, UniProt Q2M2I8)
# Assay: HEK281 Cell-Based Assay (phospho-mu2 Western blot in HEK293F cells transfected with AAK1 and AP2M1)
# Conditions: IC50 (nM), functional potency; inhibition of mu2 phosphorylation in HEK293F cells, 3 hours incubation, 5 concentrations
# AAK1 (full length human), sequence (Q2M2I8 1-863 isoform Q2M2I8-2): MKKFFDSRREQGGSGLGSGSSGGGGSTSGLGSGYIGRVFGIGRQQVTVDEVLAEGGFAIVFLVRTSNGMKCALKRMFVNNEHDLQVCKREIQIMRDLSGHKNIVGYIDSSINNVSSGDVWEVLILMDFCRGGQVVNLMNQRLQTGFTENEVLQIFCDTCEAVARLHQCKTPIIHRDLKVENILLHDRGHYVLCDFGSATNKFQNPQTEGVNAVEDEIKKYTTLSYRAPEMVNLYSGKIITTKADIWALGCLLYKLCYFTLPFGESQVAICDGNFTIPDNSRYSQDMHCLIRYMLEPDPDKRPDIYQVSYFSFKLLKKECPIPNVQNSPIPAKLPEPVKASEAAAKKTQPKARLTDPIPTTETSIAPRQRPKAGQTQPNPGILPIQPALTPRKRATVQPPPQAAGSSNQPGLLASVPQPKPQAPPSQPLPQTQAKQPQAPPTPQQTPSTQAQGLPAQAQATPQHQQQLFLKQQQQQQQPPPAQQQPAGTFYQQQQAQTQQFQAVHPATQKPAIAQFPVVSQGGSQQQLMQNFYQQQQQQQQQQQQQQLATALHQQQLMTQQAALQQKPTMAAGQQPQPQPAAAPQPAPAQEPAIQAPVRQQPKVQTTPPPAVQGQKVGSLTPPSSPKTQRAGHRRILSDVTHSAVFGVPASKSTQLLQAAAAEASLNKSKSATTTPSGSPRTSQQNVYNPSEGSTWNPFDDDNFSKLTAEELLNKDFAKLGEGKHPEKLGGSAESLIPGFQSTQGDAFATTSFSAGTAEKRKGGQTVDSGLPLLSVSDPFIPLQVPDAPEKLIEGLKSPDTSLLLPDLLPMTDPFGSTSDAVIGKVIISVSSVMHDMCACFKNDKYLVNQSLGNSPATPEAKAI
row,IC50,Compound
1,1090 nM,"CC(C)CCc1nc(NCCN2CCCC2)c2cc(-c3cnco3)ccc2n1 [Example 78, 2-Isopentyl-6-(oxazol-5-yl)-N-(2-(pyrrolidin-1-yl)ethyl)quinazolin-4-amine]"
2,144 nM,"CC(C)CCc1nc(C#N)c2cc(-c3ccncc3)ccc2n1 [Example 60, 2-Isopentyl-6-(pyridin-4-yl)quinazoline-4-carbonitrile]"
3,2010 nM,"CC(C)CCc1nc(NCCN)c2cc(-c3cnco3)ccc2n1 [Example 44, N^1-(2-Isopentyl-6-(oxazol-5-yl)quinazolin-4-yl)ethane-1,2-diamine]"
4,1070 nM,"COc1nc(CCC(C)C)nc2ccc(-c3ccncc3)cc12 [Example 38, 2-Isopentyl-4-methoxy-6-(pyridin-4-yl)quinazoline]"
5,22 nM,"CCN(CC)c1nc(C(N)CC(C)C)nc2ccc(-c3ccncc3)cc12 (centres unmarked) [Example 25, 2-(1-Amino-3-methylbutyl)-N,N-diethyl-6-(pyridin-4-yl)quinazolin-4-amine]"
6,68 nM,"COc1cc2nc(C(N)CC(C)C)nc(C#N)c2cc1-c1ccncc1 (centres unmarked) [Example 35, 2-(1-Amino-3-methylbutyl)-7-methoxy-6-(pyridin-4-yl)quinazoline-4-carbonitrile]"
7,83 nM,"CCc1nc(C(N)CC(C)C)nc2ccc(-c3ccncn3)cc12 (centres unmarked) [Example 64, 1-(4-Ethyl-6-(pyrimidin-4-yl)quinazolin-2-yl)-3-methylbutan-1-amine]"
8,20 nM,"COc1cc2nc(CCC(C)C)[nH]c(=O)c2cc1-c1cnco1 [Example 58, 2-Isopentyl-7-methoxy-6-(oxazol-5-yl)quinazolin-4(3H)-one]"
9,230 nM,"COc1nc(C(N)CC(C)C)nc2ccc(-c3cnco3)cc12 (centres unmarked) [Example 14, 1-(4-Methoxy-6-(oxazol-5-yl)quinazolin-2-yl)-3-methylbutan-1-amine]"
10,144 nM,"CCc1nc(C(CN)CC(C)C)nc2ccc(-c3ccncc3)cc12 (centres unmarked) [Example 68, 2-(4-Ethyl-6-(pyridin-4-yl)quinazolin-2-yl)-4-methylpentan-1-amine]"
11,12 nM,"COc1cnccc1-c1ccc2nc(C(N)CC(C)C)nc(C#N)c2c1 (centres unmarked) [Example 34, 2-(1-Amino-3-methylbutyl)-6-(3-methoxypyridin-4-yl)quinazoline-4-carbonitrile]"
12,412 nM,"CC(C)CCc1nc(N(C)C)c2cc(-c3cnco3)ccc2n1 [Example 40, 2-Isopentyl-N,N-dimethyl-6-(oxazol-5-yl)quinazolin-4-amine]"
13,77 nM,"CCc1nc(C(N)CC(C)C)nc2ccc(-c3cnco3)cc12 (centres unmarked) [Example 3, 1-(4-Ethyl-6-(oxazol-5-yl)quinazolin-2-yl)-3-methylbutan-1-amine]"
14,36 nM,"CCc1nc(C(N)CC(C)C)nc2ccc(-c3ccncc3OC)cc12 (centres unmarked) [Example 6, 1-(4-Ethyl-6-(3-methoxypyridin-4-yl)quinazolin-2-yl)-3-methylbutan-1-amine]"
15,380 nM,"CCNc1nc(C(N)CC(C)C)nc2ccc(-c3ccncc3OC)cc12 (centres unmarked) [Example 28, 2-(1-Amino-3-methylbutyl)-N-ethyl-6-(3-methoxypyridin-4-yl)quinazolin-4-amine]"
16,86 nM,"CCNc1nc(C(N)CC(C)C)nc2ccc(-c3ccncc3)cc12 (centres unmarked) [Example 24, 2-(1-Amino-3-methylbutyl)-N-ethyl-6-(pyridin-4-yl)quinazolin-4-amine]"
17,2670 nM,"CC(C)CCc1nc(C(=O)N(C)C)c2cc(-c3ccncc3)ccc2n1 [Example 59, 2-Isopentyl-N,N-dimethyl-6-(pyridin-4-yl)quinazoline-4-carboxamide]"
18,61 nM,"CCc1nc(C(N)C2CCCCC2)nc2ccc(-c3ccncc3)cc12 (single isomer, unassigned; (+)) [Example 8, (+)-Cyclohexyl(4-ethyl-6-(pyridin-4-yl)quinazolin-2-yl)methanamine]"
19,210 nM,"CNc1nc(C(N)CC(C)C)nc2ccc(-c3cnco3)cc12 (centres unmarked) [Example 16, 2-(1-Amino-3-methylbutyl)-N-methyl-6-(oxazol-5-yl)quinazolin-4-amine]"
20,159 nM,"CSc1nc(CCC(C)C)nc2ccc(-c3cnco3)cc12 [Example 43, 5-(2-Isopentyl-4-(methylthio)quinazolin-6-yl)oxazole]"
